Measured values: ChEMBL document CHEMBL1147289, “A new bioactive derivative of avarol from the marine sponge Dysidea avara” (J Nat Prod, 1989)

Assays:
[1] = test system: Artemia; test: Toxicity in brine shrimp; format: organism-based; conditions: in vivo
[2] = test system: Agrobacterium tumefaciens; test: Antitumor activity against Agrobacterium tumefaciens-induced crown gall tumors in potato tubers by potato disk assay; format: functional

Compound | LC50 [1] | inhibition (INH) [2]
CC(=O)O.CC1=CCCC2[C@](C)(Cc3cc(O)ccc3O)[C@@H](C)CC[C@]12C (stereo partly specified) [AVAROL MONOACETATE] | 0.09 ppm | 59%
CC1=CCC[C@H]2[C@](C)(Cc3cc(O)ccc3O)[C@@H](C)CC[C@]12C [AVAROL] | 0.18 ppm | 64%
CC1=CCC[C@H]2[C@](C)(CC3=CC(=O)C=CC3=O)[C@@H](C)CC[C@]12C [AVARONE] | 0.14 ppm | 63%
